Assay: wn = mass fraction of the nth substance listed
Settings: 101 kPa, Liquid; for electrical conductivity: Alternating current cell with electrodes; for viscosity: Capillary tube (Ostwald / Ubbelohde) method; for mass density: Vibrating tube method

O=c1cc[nH]c(=O)[nH]1 [2,4(1H,3H)-pyrimidinedione] + CC(=O)[O-].CCn1cc[n+](C)c1
Settings | electrical conductivity [S/m] | mass density [kg/m3] | viscosity [mPa·s]
298.15 K, w2 = 0 | 0.296 | 1097.6 | 128.5
298.15 K, w2 = 0.0486 | 0.221 | 1111 | 190.6
298.15 K, w2 = 0.1019 | 0.159 | 1125 | 294
298.15 K, w2 = 0.1471 | 0.11 | 1135.7 | 437.6
298.15 K, w2 = 0.2029 | 0.0807 | 1148.6 | 682.8
298.15 K, w2 = 0.2505 | 0.0585 | 1157.9 | 1010
298.15 K, w2 = 0.298 | 0.0388 | 1166.8 | 1589
303.15 K, w2 = 0 | 0.382 | 1094.5 | 95.23
303.15 K, w2 = 0.0486 | 0.293 | 1107.9 | 136.6
303.15 K, w2 = 0.1019 | 0.214 | 1122 | 204
303.15 K, w2 = 0.1471 | 0.156 | 1132.5 | 293.1
303.15 K, w2 = 0.2029 | 0.117 | 1145.2 | 441.4
303.15 K, w2 = 0.2505 | 0.0878 | 1154.6 | 630.8
303.15 K, w2 = 0.298 | 0.0602 | 1163.7 | 952.6
308.15 K, w2 = 0 | 0.48 | 1091.4 | 72.42
308.15 K, w2 = 0.0486 | 0.38 | 1104.9 | 100.9
308.15 K, w2 = 0.1019 | 0.288 | 1118.9 | 146.4
308.15 K, w2 = 0.1471 | 0.212 | 1129.3 | 204.2
308.15 K, w2 = 0.2029 | 0.163 | 1141.9 | 297.8
308.15 K, w2 = 0.2505 | 0.125 | 1151.2 | 413.1
308.15 K, w2 = 0.298 | 0.0892 | 1160.5 | 602.2
313.15 K, w2 = 0 | 0.594 | 1088.4 | 56.38
313.15 K, w2 = 0.0486 | 0.48 | 1101.8 | 76.6
313.15 K, w2 = 0.1019 | 0.372 | 1115.8 | 108.2
313.15 K, w2 = 0.1471 | 0.281 | 1126.2 | 147.1
313.15 K, w2 = 0.2029 | 0.221 | 1138.8 | 208.6
313.15 K, w2 = 0.2505 | 0.173 | 1148 | 281.8
313.15 K, w2 = 0.298 | 0.127 | 1157.1 | 398.2
318.15 K, w2 = 0 | 0.827 | 1085.3 | 44.79
318.15 K, w2 = 0.0486 | 0.592 | 1098.8 | 59.5
318.15 K, w2 = 0.1019 | 0.469 | 1112.8 | 82.2
318.15 K, w2 = 0.1471 | 0.362 | 1123.2 | 109.1
318.15 K, w2 = 0.2029 | 0.29 | 1135.7 | 150.9
318.15 K, w2 = 0.2505 | 0.233 | 1144.8 | 199.2
318.15 K, w2 = 0.298 | 0.176 | 1153.9 | 273.8
323.15 K, w2 = 0 | 0.986 | 1082.3 | 36.23
323.15 K, w2 = 0.0486 | 0.718 | 1095.8 | 47.16
323.15 K, w2 = 0.1019 | 0.579 | 1109.9 | 63.79
323.15 K, w2 = 0.1471 | 0.456 | 1120.2 | 82.98
323.15 K, w2 = 0.2029 | 0.371 | 1132.7 | 112.2
323.15 K, w2 = 0.2505 | 0.304 | 1141.7 | 145.2
323.15 K, w2 = 0.298 | 0.233 | 1150.8 | 194.8
328.15 K, w2 = 0 | – | 1079.3 | 29.78
328.15 K, w2 = 0.0486 | – | 1092.9 | 38.06
328.15 K, w2 = 0.1019 | – | 1106.9 | 50.53
328.15 K, w2 = 0.1471 | – | 1117.1 | 64.55
328.15 K, w2 = 0.2029 | – | 1129.6 | 85.56
328.15 K, w2 = 0.2505 | – | 1138.7 | 108.7
328.15 K, w2 = 0.298 | – | 1147.8 | 142.7
333.15 K, w2 = 0 | – | 1076.2 | 24.82
333.15 K, w2 = 0.0486 | – | 1089.9 | 31.2
333.15 K, w2 = 0.1019 | – | 1103.9 | 40.73
333.15 K, w2 = 0.1471 | – | 1114.1 | 51.22
333.15 K, w2 = 0.2029 | – | 1126.6 | 66.66
333.15 K, w2 = 0.2505 | – | 1135.7 | 83.31
333.15 K, w2 = 0.298 | – | 1144.7 | 107.3
338.15 K, w2 = 0 | – | 1073.3 | 20.95
338.15 K, w2 = 0.0486 | – | 1086.9 | 25.94
338.15 K, w2 = 0.1019 | – | 1100.9 | 33.34
338.15 K, w2 = 0.1471 | – | 1111.1 | 41.34
338.15 K, w2 = 0.2029 | – | 1123.6 | 52.92
338.15 K, w2 = 0.2505 | – | 1132.7 | 65.2
338.15 K, w2 = 0.298 | – | 1141.7 | 82.59
343.15 K, w2 = 0 | – | 1070.3 | 17.88
343.15 K, w2 = 0.0486 | – | 1083.9 | 21.84
343.15 K, w2 = 0.1019 | – | 1097.9 | 27.67
343.15 K, w2 = 0.1471 | – | 1108.1 | 33.87
343.15 K, w2 = 0.2029 | – | 1120.5 | 42.75
343.15 K, w2 = 0.2505 | – | 1129.6 | 51.97
343.15 K, w2 = 0.298 | – | 1138.7 | 64.84

Nc1[nH]cnc2ncnc1-2 [6-amino-1H-purine] + CC(=O)[O-].CCn1cc[n+](C)c1
Settings | electrical conductivity [S/m] | mass density [kg/m3] | viscosity [mPa·s]
298.15 K, w2 = 0 | 0.296 | 1097.6 | 128.5
298.15 K, w2 = 0.0482 | 0.209 | 1111.1 | 197.7
298.15 K, w2 = 0.1008 | 0.143 | 1124.3 | 318
298.15 K, w2 = 0.1514 | 0.0996 | 1135 | 498.1
298.15 K, w2 = 0.2055 | 0.0672 | 1146.4 | 823.2
298.15 K, w2 = 0.2481 | 0.0471 | 1154.5 | 1235.7
303.15 K, w2 = 0 | 0.382 | 1094.5 | 95.23
303.15 K, w2 = 0.0482 | 0.278 | 1107.9 | 141
303.15 K, w2 = 0.1008 | 0.197 | 1121.1 | 218
303.15 K, w2 = 0.1514 | 0.142 | 1131.7 | 328.1
303.15 K, w2 = 0.2055 | 0.0995 | 1143 | 517.9
303.15 K, w2 = 0.2481 | 0.0718 | 1151.2 | 748.9
308.15 K, w2 = 0 | 0.48 | 1091.4 | 72.42
308.15 K, w2 = 0.0482 | 0.362 | 1104.9 | 103.7
308.15 K, w2 = 0.1008 | 0.264 | 1118 | 154.8
308.15 K, w2 = 0.1514 | 0.196 | 1128.6 | 224.7
308.15 K, w2 = 0.2055 | 0.142 | 1139.8 | 341.2
308.15 K, w2 = 0.2481 | 0.105 | 1147.9 | 477.5
313.15 K, w2 = 0 | 0.594 | 1088.4 | 56.38
313.15 K, w2 = 0.0482 | 0.459 | 1101.9 | 78.37
313.15 K, w2 = 0.1008 | 0.346 | 1114.9 | 113.4
313.15 K, w2 = 0.1514 | 0.262 | 1125.5 | 159.6
313.15 K, w2 = 0.2055 | 0.194 | 1136.6 | 233.9
313.15 K, w2 = 0.2481 | 0.148 | 1144.7 | 318.1
318.15 K, w2 = 0 | 0.827 | 1085.3 | 44.79
318.15 K, w2 = 0.0482 | 0.571 | 1098.8 | 60.64
318.15 K, w2 = 0.1008 | 0.439 | 1111.9 | 85.36
318.15 K, w2 = 0.1514 | 0.34 | 1122.4 | 116.8
318.15 K, w2 = 0.2055 | 0.259 | 1133.5 | 166
318.15 K, w2 = 0.2481 | 0.202 | 1141.6 | 220.1
323.15 K, w2 = 0 | 0.986 | 1082.3 | 36.23
323.15 K, w2 = 0.0482 | 0.695 | 1095.8 | 47.91
323.15 K, w2 = 0.1008 | 0.546 | 1108.9 | 65.78
323.15 K, w2 = 0.1514 | 0.431 | 1119.4 | 87.9
323.15 K, w2 = 0.2055 | 0.336 | 1130.4 | 121.4
323.15 K, w2 = 0.2481 | 0.267 | 1138.5 | 157.4
328.15 K, w2 = 0 | – | 1079.3 | 29.78
328.15 K, w2 = 0.0482 | – | 1092.9 | 38.55
328.15 K, w2 = 0.1008 | – | 1105.9 | 51.75
328.15 K, w2 = 0.1514 | – | 1116.4 | 67.64
328.15 K, w2 = 0.2055 | – | 1127.5 | 91.14
328.15 K, w2 = 0.2481 | – | 1135.4 | 115.9
333.15 K, w2 = 0 | – | 1076.2 | 24.82
333.15 K, w2 = 0.0482 | – | 1089.9 | 31.51
333.15 K, w2 = 0.1008 | – | 1102.9 | 41.48
333.15 K, w2 = 0.1514 | – | 1113.4 | 53.16
333.15 K, w2 = 0.2055 | – | 1124.5 | 70.05
333.15 K, w2 = 0.2481 | – | 1132.5 | 87.5
338.15 K, w2 = 0 | – | 1073.3 | 20.95
338.15 K, w2 = 0.0482 | – | 1086.9 | 26.14
338.15 K, w2 = 0.1008 | – | 1099.9 | 33.78
338.15 K, w2 = 0.1514 | – | 1110.4 | 42.55
338.15 K, w2 = 0.2055 | – | 1121.5 | 54.95
338.15 K, w2 = 0.2481 | – | 1129.5 | 67.57
343.15 K, w2 = 0 | – | 1070.3 | 17.88
343.15 K, w2 = 0.0482 | – | 1083.9 | 21.96
343.15 K, w2 = 0.1008 | – | 1096.9 | 27.91
343.15 K, w2 = 0.1514 | – | 1107.4 | 34.61
343.15 K, w2 = 0.2055 | – | 1118.5 | 43.91
343.15 K, w2 = 0.2481 | – | 1126.4 | 53.21
